The test system of data set [1] is cisplatin-resistant murine L1210 leukemia cell (L1210/DDP). The data set is described as follows: Antitumor effect on cisplatin-resistant murine L1210 leukemia cell (L1210/DDP), increase in life-span. Type of data set: in vivo, murine; male CDF1 mice. The settings on record: for dose corresponding to ILSmax: dose(s) shown in parenthesis; for ILSmax (maximum ILS value within the set doses): male CDF1 mice, observed for 30 days; for ILS50 (a dose which shows 50% of the ILS value by 5 administrations): ND: not detectable; for TI (therapeutic index LD50/ILS50): LD50/ILS50, ND: not detectable. The text has this:
(§1) Murine L1210 leukemia cells (1×10^5 cells) were inoculated peritoneally into six-week-old male CDF1 mice.
(§2) T: mean survival days of drug-treated group
(§3) C: mean survival days of untreated group
(§4) In the table, ILSmax means the maximum ILS value (%) within the set doses, and its corresponding dose (mg/kg) is shown in parenthesis.
Antitumor effect on cisplatin-resistant murine L1210 leukemia cell:
The above test of the antitumor effect on murine leukemia cells was repeated except that cisplatin-resistant murine L1210 leukemia cell (L1210/DDP) was used instead of murine L1210 leukemia cell, with the results shown in Table 2.

The test system of data set [2] is murine L1210 leukemia cells. The data set is described as follows: Antitumor effect on murine L1210 leukemia cell (intraperitoneally inoculated mice, increase in life-span). Format: in vivo, murine; male CDF1 mice. As to conditions: for ILS50 (a dose which shows 50% of the ILS value by 5 administrations): from linear regression line; for dose corresponding to ILSmax: dose shown in parenthesis; for ILSmax (maximum ILS value within the set doses): male CDF1 mice, observed for 30 days.
From the text: as §1, §2, §3, §4

In data set [3] the test system is male CDF1 mice. The data set is described as follows: 50% lethal dose by single intraperitoneal administration. Type of data set: in vivo.
From the text: as §4

The values below come from patent publication US5585511A, “Platinum complex and malignant tumor treating drug containing the same” (SS Pharmaceutical Co., Ltd., priority 1994, dated 1996).

With `N.N.[Cl][Pt][Cl]` [Cisplatin, cisplatin, reference compound], in data set [1], the “dose corresponding to ILSmax” value stood at 4 mg/kg and the “ILSmax (maximum ILS value within the set doses)” value turned out to be 1.0%. Besides, in data set [2], the “ILS50 (a dose which shows 50% of the ILS value by 5 administrations)” value worked out at 1.3 mg/kg, the “dose corresponding to ILSmax” value was found to be 4 mg/kg and the “ILSmax (maximum ILS value within the set doses)” value amounted to 97.5%.
For orientation: LD50 means the dose expected to kill half of the subjects tested. A high value points to lower toxicity. Regarding `O=C([O][Pt]1([Cl])[NH]C2CCCCC2[NH]1)C1CCCC1` (stereo not drawn) [Compound 16, chloro(cyclopentanecarboxylato)(trans-1-1,2-diaminocyclohexane)platinum(II)], the LD50 in data set [3] stood at 176.8 mg/kg. Besides, in data set [1], the “ILS50 (a dose which shows 50% of the ILS value by 5 administrations)” value was less than 4.0 mg/kg, the “TI (therapeutic index LD50/ILS50)” value is given as more than 44.2, the “dose corresponding to ILSmax” value was 4,8 mg/kg and the “ILSmax (maximum ILS value within the set doses)” value is more than 194.1%. Also, in data set [2], the “ILS50 (a dose which shows 50% of the ILS value by 5 administrations)” value is reported as 5.6 mg/kg, the “TI (therapeutic index LD50/ILS50)” value was determined as 31.6, the “dose corresponding to ILSmax” value was found to be 32 mg/kg and the “ILSmax (maximum ILS value within the set doses)” value is on record as more than 221.3%.
Consider “chloro (cyclopropanecarboxylato) (trans-1-1,2-diaminocyclohexane)platinum(II) [Compound 15]”, for which the LD50 in data set [3] came to 31.3 mg/kg. Further, in data set [1], the “ILS50 (a dose which shows 50% of the ILS value by 5 administrations)” value is less than 1.0 mg/kg, the “TI (therapeutic index LD50/ILS50)” value was more than 31.3, the “dose corresponding to ILSmax” value is listed as 1,2 mg/kg and the “ILSmax (maximum ILS value within the set doses)” value is more than 194.1%. In data set [2], the “ILS50 (a dose which shows 50% of the ILS value by 5 administrations)” value is given as 1.2 mg/kg, the “TI (therapeutic index LD50/ILS50)” value was 26.1, the “dose corresponding to ILSmax” value was determined as 8 mg/kg and the “ILSmax (maximum ILS value within the set doses)” value is reported as more than 166.3%.
“chloro(1-lactato)(trans-1-1,2-diaminocyclohexane)platinum(II) [Compound 17]”: the LD50 in data set [3] worked out at 44.3 mg/kg. Also, in data set [1], the “ILS50 (a dose which shows 50% of the ILS value by 5 administrations)” value was less than 1.0 mg/kg, the “TI (therapeutic index LD50/ILS50)” value was more than 44.3, the “dose corresponding to ILSmax” value is 1,2 mg/kg and the “ILSmax (maximum ILS value within the set doses)” value was more than 194.1%. In data set [2], the “ILS50 (a dose which shows 50% of the ILS value by 5 administrations)” value is given as less than 1.0 mg/kg, the “TI (therapeutic index LD50/ILS50)” value is more than 44.3, the “dose corresponding to ILSmax” value is given as 8 mg/kg and the “ILSmax (maximum ILS value within the set doses)” value was more than 190.0%.
Molecule “chloro(propionato)(trans-1-1,2-diaminocyclohexane)platinum(II) [Compound 14]” yielded a median lethal dose (LD50) in data set [3] of 44.3 mg/kg. Moreover, in data set [1], the “ILS50 (a dose which shows 50% of the ILS value by 5 administrations)” value is on record as less than 1.0 mg/kg, the “TI (therapeutic index LD50/ILS50)” value is recorded as more than 44.3 and the “ILSmax (maximum ILS value within the set doses)” value is on record as more than 194.1%. Further, in data set [2], the “ILS50 (a dose which shows 50% of the ILS value by 5 administrations)” value is on record as 1.0 mg/kg, the “TI (therapeutic index LD50/ILS50)” value amounted to 44.3, the “dose corresponding to ILSmax” value was 8 mg/kg and the “ILSmax (maximum ILS value within the set doses)” value amounted to 146.3%.
